The subject of assay [1] is human non-small-cell lung cancer cells (A549). Briefly: CCK-8 cell proliferation assay, A549. The settings on record: 48 h, read-out: Inhibition rates (%) A549. The class given is cell-based. How it is done: (§1) Initially, the target compounds were evaluated for antiproliferative activities against human non-small-cell lung cancer cells (A549), human breast cancer cells (MDA-MB-231), human esophageal cancer cells (KYSE30), and human colon cancer cells (HCT-116) at 5 μM. All of them were tested by the CCK-8 assay using 5-Fu as the positive control.
(§2) To investigate the effects of compounds on tumor cells’ proliferation, the cell proliferation assay was performed using the Cell Counting Kit-8 (#40203ES60, Yeasen, Shanghai, China). In brief, cells were seeded in a 96-well plate at 3 × 10^3 cells per well and cultured overnight. Then, the medium was replaced with fresh DMEM medium containing various concentrations of compounds or vehicle. After 48 h of incubation, the medium was exchanged with 100 μL of FBS-free DMEM medium supplemented with 10 μL of CCK8 added to each well and incubated at 37 °C for another 2 h. Absorbance at 450 nm was measured with a microplate reader (Thermo). The experiments were performed in triplicate. The mean ± SD values presented in the figures were calculated from three independent experiments. Comparisons between groups were evaluated using GraphPad Prism version 7.0 software. p < 0.05 was considered statistically significant.
In general terms: Tetrazolium dyes change colour on reduction, which living cells bring about.

For assay [2], the system named is human breast cancer cells (MDA-MB-231). Description: CCK-8 cell proliferation assay, MDA-MB-231. The class given is cell-based. The settings on record: 48 h, read-out: Inhibition rates (%) MDA-MB-231. On the procedure: as §1, §2
Assay [3] concerns human esophageal cancer cells (KYSE30). Briefly: CCK-8 cell proliferation assay, KYSE30. Type of assay: cell-based. The settings on record: KYSE-30, 48 h, read-out: Inhibition rates (%) KYSE30. On the procedure:
as §1, §2

For assay [4], the system named is human colon cancer cells (HCT-116). Description: CCK-8 cell proliferation assay, HCT-116. The class given is cell-based. How it is done:
as §1
(§3) To further assess the antitumor activities of synthesized compounds against human colon cancer cells, the effects of each synthesized compound on the viability of two additional human colon cancer cells (SW620, DLD1) were evaluated, and normal human colonic epithelial cells (NCM460) were used as a control. It is obvious that all the synthesized compounds display potential antitumor activities against HCT116, DLD1, and SW620 cells. […] In addition, for SW620, the activities of most optimized compounds were slightly stronger than that of 5-Fu.
(§4) HCT116, SW620, and DLD1 were purchased from American Type Culture Collection (ATCC). SW620 and DLD1 were cultured in Dulbecco’s Modified Eagles medium (Thermo), and HCT116 was cultured in McCoy’s 5A medium (Thermo). All media were supplemented with 10% fetal bovine serum (Thermo) and 1% penicillin/streptomycin. All the cells were passaged at approximately 80% confluency. Cells were tested for mycoplasma every two months, and only mycoplasma-negative cells were used
as §2

Assay [5] relates to human colon cancer cells (DLD1). Briefly: CCK-8 cell proliferation assay, DLD1. The class given is cell-based. The settings on record: DLD-1, CCK-8, 48 h, read-out: IC50 ± SD DLD1. How it is done:
as §3, §4, §2

In assay [6] the test system is human colon cancer cells (SW620). Briefly: CCK-8 cell proliferation assay, SW620. Type of assay: cell-based. The settings on record: SW-620, CCK-8, 48 h, read-out: IC50 ± SD SW620. On the procedure:
as §3, §4, §2

Assay [7] concerns normal human colonic epithelial cells (NCM460). Description: CCK-8 cell proliferation assay, NCM460. Type of assay: cell-based. The settings on record: NCM460, CCK-8, 48 h, normal colonic epithelial cells, read-out: IC50 ± SD NCM460. On the procedure:
as §3, §2

The subject of assay [8] is CyclinD1, CDK6, CDK4, p-Rb in SW620 cells. Briefly: Immunoblot of cell-cycle regulatory proteins, SW620. The class given is cell-based, human. The settings on record: indicated concentrations, 48 h. On the procedure: (§5) Additionally, flow cytometric analyses were performed to determine cell-cycle distribution, where 400 ng/mL of nocodazole was used to synchronize cells in G2/M phase.
(§6) When 80% confluency was reached, cells were seeded into a 6-well plate at 3 × 10^6 cells per well and allowed to attach overnight. Then, the cells were treated with different concentrations of TH12-10 or vehicle for 48 h. Cells were lysed in RIPA buffer (#89900, Thermo, Waltham, MA, USA) supplemented with protease inhibitor cocktail (#B14002, Bimake, Houston, TX, USA) on ice for 30 min and centrifuged at 12,000 rpm for 10 min at 4 °C. Protein concentration was determined by the BCA kit and equal amounts of lysates were separated by SDS-polyacrylamide gels, and transferred to nitrocellulose membranes (#HATF00010, Millipore, Burlington, MA, USA). Then, the membranes were blocked with 5% milk in TBST for 1 h and probed with the indicated antibodies. […]
(§7) Figure 3 TH12-10 blocks S phase entry. […] (D) Quantitative analysis of DLD1 cells in G1 phase as described in (C). […]
In general terms: In western blotting, separated proteins are transferred to a membrane and probed.

Assay [9] deals with CyclinD1, CDK6, CDK4, p-Rb in DLD1 cells. Description: Immunoblot of cell-cycle regulatory proteins, DLD1. The class given is cell-based, human. The settings on record: indicated concentrations, 48 h. On the procedure: as §5, §6, §7
Assay [10] has as its system CyclinD1, CDK6, CDK4, p-Rb in NCM460 cells. Briefly: Immunoblot of cell-cycle regulatory proteins, NCM460. The class given is cell-based, human. The settings on record: indicated concentrations, 48 h. How it is done: as §5, §6
Figure 4 The contribution of TH12-10 to the cell cycle. […] (D) Quantitative analysis of NCM460 cells in G1 phase as described in (C). […]

The subject of a further assay is DLD1 cells. Description: Flow cytometric cell-cycle distribution, DLD1. The class given is cell-based, human. The settings on record: 6 h after nocodazole (400 ng/mL), flow cytometry. On the procedure: as §5
Figure 3 TH12-10 blocks S phase entry. (A) Immunoblot analysis of Cyclin D1, CDK4, CDK6, and p-Rb in SW620 and DLD1 cells treated with indicated concentrations of TH12-10 for 48 h. (B) Densitometry analysis of indicated proteins as described in (A) was performed using Image J software. […] (D) Quantitative analysis of DLD1 cells in G1 phase as described in (C). All data are presented as means ± SD of three independent experiments. * p < 0.05, ** p < 0.01, *** p < 0.001. N.S., not significant. Differences were tested using one-way ANOVA (B) or the unpaired t-test with Welch’s correction (D).
Background: In flow cytometry, cells or beads pass a laser one at a time.

Turning to `COC1C2CC3C(C)(C)OC(CC=C(C)C(=O)N4CCS(=O)(=O)CC4)(C2=O)C32Oc3c(CC=C(C)C)c4c(c(O)c3C(=O)C12)C=CC(C)(C)O4` (stereo not drawn) [TH12-10], the inhibition at 5 µM is 6.85 ± 2.16% in [1]; 8.09 ± 0.28% in [2]; 3.65 ± 2.44% in assay [3]; 88.1 ± 2.78% in [4] (HCT-116, 5 μM, CCK-8, 48 h, read-out: Inhibition rates (%) HCT-116). The IC50 was determined as 830 ± 100 nM in [4] (HCT-116, CCK-8, 48 h, read-out: IC50 ± SD HCT116); 1100 ± 190 nM in [5]; 790 ± 120 nM in assay [6]; 4080 ± 110 nM in assay [7]. Further, the “expression of CyclinD1, CDK6, CDK4 and p-Rb” value is “significantly decreased” in assay [8], “significantly decreased” in assay [9] and “no significant change” in assay [10]. The “percentage of cells in the G1 phase vs blank control” value with DLD1 cells is “significantly higher”.

What is called inhibition is the percentage by which the read-out fell short of the control. A word on the IC50: it is the midpoint of a concentration-inhibition curve.
